Row | Structure (SMILES) | melting point
1 | CCN(CC)c1ccc(C(=O)c2ccccc2C(=O)O)cc1 | 184 °C
2 | CCCn1cnc2cc(CN3CCN(C(c4ccccc4)c4ccccc4)CC3)ccc21 | 155 °C
3 | Cc1nc(-c2ccc3c(c2)CCCC3)c(C(=O)O)o1 | 183 to 185 °C
4 | O=C(O)CC[C@H]1CC[C@H]2CN[C@H](C(=O)O)C[C@H]2C1 (racemic) | 190 to 191 °C
5 | CSc1sc(C=O)cc1C=O | 135 to 137 °C
6 | CCc1nn(-c2cc(NC(=O)CCOC)ccc2Cl)c(=O)n1Cc1ccc(-c2ccccc2S(=O)(=O)NC(=O)OC(C)(C)C)cc1F | 128 to 131 °C
7 | CC(=O)OC1CC2=CC(=O)C3C4CCCC4(C)CCC3C2(C)C(OC(C)=O)C1 (stereo not given) | 220 to 221 °C
8 | Cc1cnc(CCCC#N)c([N+](=O)[O-])c1 | 53 to 55 °C
9 | C=CC1OC(=O)c2c(Oc3nc(OC)cc(OC)n3)cccc21 (stereo not given) | 94 to 97 °C
10 | Cc1ccc(-c2nc(CN3CCN(C(c4ccccc4)c4ccccc4)CC3)c(C)[nH]2)cc1 | 238 °C
11 | c1ccc(CCOc2ncnc3nc[nH]c23)cc1 | 209 to 210 °C
12 | Cc1cc(-n2cnn(Cc3ccc(F)cc3)c2=O)sc1C(=O)NCc1ncco1 | 163 to 165 °C
13 | CNC1CCCN(C(=O)c2ccc(NC(=O)c3ccccc3C)s2)c2ccc(Cl)cc21 (stereo not given) | 213 to 216 °C
14 | CCCCc1cn(CCc2cccs2)c(=O)n1Cc1ccc(-c2ccccc2-c2nnn[nH]2)nc1 | 137 to 138 °C
15 | COc1ccc(/C=C/C(=O)N(C)CC(O)CO)cc1 (stereo not given) | 81 to 83 °C
16 | COc1ccc2[nH]c(C=Cc3ccccc3Cl)cc2c1 | 135 to 137 °C
17 | CC(C)(C)S(=O)C1CC(=O)N1CC(=O)CCc1ccccc1 (stereo not given) | 79 to 81 °C
18 | COc1cc(OCCCO)c(C=CC(=O)c2ccc(S(=O)(=O)Nc3cc(C)on3)cc2)cc1-c1cccs1 | 178 to 182 °C
19 | C[C@H]1[C@H](c2ccccc2)OC(c2cc(Br)cc3c2OCC3)N1C (stereo not given in full) | 83.5 to 85.5 °C
20 | COC(=O)c1cccc(F)c1C=NC(C)(C(N)=O)C(C)C (stereo not given) | 125 to 131 °C
21 | CNc1nn(-c2ccccc2)cc1C=O | 83 to 84 °C
22 | CC(N)c1ccc(NS(C)(=O)=O)c(Sc2ccc(F)cc2F)c1 (stereo not given) | 165 to 166 °C
23 | CC(C)(C)OC(=O)[C@@H]1CSC(Cc2ccccc2)N1C(=O)CNC(=O)Nc1cccc(CC(=O)O)c1 (stereo not given in full) | 110 °C
24 | O=C(O)CSCCSc1ccc(O)cc1 | 105 °C
25 | COc1ccc(-c2[nH]c(-c3cccc4ccccc34)nc2C(=O)Nc2nccs2)cc1 | 198 to 200 °C

Row | Structure (SMILES) | melting point
26 | CN(C)CCOc1ccccc1-c1cc(NC(N)=O)c(C(N)=O)s1 | 180 °C
27 | Cc1cccc(C(=O)c2cccc(N)c2)c1 | 110 °C
28 | CC(OC(=O)OC1CC(=O)NC1=O)OC(=O)C(C)C (stereo not given) | 50 to 54 °C
29 | COC(=O)Nc1cc(NC(=O)NSC(=S)N(C)C)ccc1C | 180 to 185 °C
30 | COc1ccc(C2=NN(c3ccc(CC(=O)N4CCOCC4)cc3)C(=O)C(C)(C)C2)cc1OC | 165 to 167 °C
31 | CC1(C)Oc2ccc(OC(F)(F)F)cc2[C@@H](NC(=O)c2ccc(Cl)cc2[N+](=O)[O-])[C@@H]1O | 64 to 66 °C
32 | O=C(NC1C2CC3CC(C2)CC1C3)N1CCC2(C=Cc3ccccc32)CC1 (stereo not given) | 189 to 191 °C
33 | CCn1c(C)nc2cc(C(F)(F)F)c(Cl)c(N)c21 | 176 to 178 °C
34 | CCCc1ccc(-c2ccc(CCc3ccc(Cl)c(F)c3)cc2)cc1 | 63.6 °C
35 | CCCCCCc1cc2c(s1)-n1c(C)nnc1CN=C2c1cccc(C)c1 | 57 to 59 °C
36 | CNC(=O)COC1C(O)C(CO)OC(Oc2ccc(N)cc2)C1O (stereo not given) | 239 °C
37 | CC1=NC(NC(=O)OCc2ccccc2)C(=O)N(CC(=O)C(C)(C)C)c2ccccc21 (stereo not given) | 68 °C
38 | O=C(CNc1ccc2[nH]c(=O)oc2c1)N1CCC(Oc2ccccc2)CC1 | 220 to 223 °C
39 | O=Cc1c(OCCCCCCC(=O)N(Cc2ccccc2)Cc2ccccc2)cc(Cl)cc1[N+](=O)[O-] | 76 to 77 °C
40 | CC(=O)Nc1cc2c(cc1Br)CCC2 | 138 °C
41 | CC(=O)Oc1c(C)cc2c(c1C)C(C)CN2C(C)=O (stereo not given) | 128 to 130 °C
42 | Cc1c(-c2ccc([N+](=O)[O-])cc2)sc2c1c(=O)n(-c1ccccc1)c(=O)n2Cc1c(F)cccc1F | 280 to 282 °C
43 | OC(Cn1cncn1)(c1ccc(Cl)cc1)C1(F)CC1 (stereo not given) | 128 °C
44 | O=C1C(=O)N(Cc2ccc(C(F)(F)F)o2)c2cccc(Cl)c21 | 148 to 150 °C
45 | CCC(=CC(CNC(=O)c1cccnc1C)=NO)C(C)[N+](=O)[O-] (stereo not given) | 128 to 129 °C
46 | C[C@H]1[C@H](OS(C)(=O)=O)CN1C(c1ccccc1)c1ccccc1 (relative stereo) | 68 to 71 °C
47 | COc1ccc2c(c1OC)OC(C)(C)CC2=O | 75 to 76 °C
48 | O=C(O)C1c2cccnc2NN1C(=O)O (stereo not given) | 270 to 285 °C
49 | CN(C(=O)CCN)c1nnc(-c2cccnc2)s1 | 110 to 112 °C
50 | CS(=O)(=O)OCCCCCCNc1ccc2nncn2n1 | 103 to 105 °C

Reference: a melting point compilation (Tetko et al.; mined from patent text by program, amines drawn as free bases though some values may be those of a salt)
